Patent US11058696B2, “Substituted bicyclic compounds” (BRISTOL-MYERS SQUIBB COMPANY, priority 2014, dated 2021)

Assays:
[1] = target: S1P1 (membranes prepared from S1P1/CHO cells) (Homo sapiens (Human), UniProt P21453); assay: Receptor [35S] GTPγS Binding Assay (S1P1 GTPγS); format: biochemical; details: GTPγS S1P1 versus GTPγS S1P3 binding assays
Experimental: Receptor [^35S] GTPγS Binding Assays: (S1P1 GTPγS/S1P3 GTPγS)
Compounds were loaded in a 384 Falcon v-bottom plate (0.5 μl/well in a 11 point, 3-fold dilution). Membranes prepared from S1P1/CHO cells or EDG3-Gal5-bla HEK293T cells (EDG3 equivalent S1P3) were added to the compound plate ([…], final protein 3 μg/well) with MULTIDROP®. [^35S]GTP (1250 Ci/mmol, Perkin Elmer) was diluted in assay buffer: 20 mM HEPES, pH7.5, 10 mM MgCl2, 150 mM NaCl, 1 mM EGTA (ethylene glycol tetraacetic acid), 1 mM DTT (Dithiothreitol), 10 μM GDP, 0.1% fatty acid free BSA, and 10 μg/ml Saponin to 0.4 nM. 40 μl of the [^35S] GTP solution was added to the compound plate with a final concentration of 0.2 nM. The reaction was kept at room temperature for 45 min. At the end of incubation, all the mixtures in the compound plate were transferred to Millipore 384-well FB filter plates via the VELOCITY11® Vprep liquid handler. The filter plate was washed with water 4 times by using the manifold Embla plate washer and dried at 60° C. for 45 min. MicroScint 20 scintillation fluid (30 μl) was added to each well for counting on the Packard TOPCOUNT®.
A larger value for the GTPγS S1P3 EC50 value indicated less activity in the GTPγS S1P3 binding assay.

[2] = tested on: spontaneous lupus, anti-dsDNA antibodies and kidney histology; assay: MRL/lpr Lupus Model; format: in vivo; details: MRL/lpr mice, p.o. daily
Source text: MRL/lpr Lupus Model: MRL/lpr is a spontaneous model of lupus. Male MRL/lpr mice (Jackson Laboratory) at the age of 12-14 weeks were enrolled for the study (N=12). […] Mice were bled every other week for anti-dsDNA antibodies measured by ELISA using pooled serum from diseased MRL/lpr mice as a positive comparator in each assay. The data were expressed in arbitrary units as a ratio of the titer of the test serum to the titer of the pooled MRL/lpr immune serum. At the end of study, one kidney was collected into 10% neutral buffered formalin and ZincTris fixatives. Fixed tissues were processed into paraffin blocks, sectioned at 3 μm, and stained with H&E or PASH. Kidney sections were graded using following criteria: Glomerular Damage: 1. Mesangial matrix thickening, cell proliferation, 2. Crescent formation, cellular deposits/casts in Bowman's space, 3. Cellular infiltration, mononuclear cells in glomerular tufts, 4. Fibrosis of Bowman's capsule. Tubular damage: 1. Infiltration of mononuclear cells, 2. Severity of tubular damage, 3. Protein casts. Tubulo-interstitial damage: 1. Fibrosis, 2. Infiltration of mononuclear cells. Each subcategory was assigned a score from 0-4, with the scores for glomerular indices representing the mean from 20 glomeruli per kidney. The total score for each mouse was the sum of the above 9 subcategories, with the highest possible score=36.

Chain of S1P1 (membranes prepared from S1P1/CHO cells) (P21453 whole entry): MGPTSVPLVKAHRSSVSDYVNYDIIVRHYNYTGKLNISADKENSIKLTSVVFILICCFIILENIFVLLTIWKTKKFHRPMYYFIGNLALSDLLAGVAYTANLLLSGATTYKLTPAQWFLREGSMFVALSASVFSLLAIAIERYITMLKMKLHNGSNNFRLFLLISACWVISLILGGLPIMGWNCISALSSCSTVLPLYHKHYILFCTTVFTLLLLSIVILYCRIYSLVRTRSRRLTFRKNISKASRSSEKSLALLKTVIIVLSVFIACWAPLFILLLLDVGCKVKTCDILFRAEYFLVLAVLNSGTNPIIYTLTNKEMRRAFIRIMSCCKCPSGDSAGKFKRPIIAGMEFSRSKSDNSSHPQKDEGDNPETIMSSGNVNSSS

Row | Structure (SMILES) | activity as an agonist of S1P1 and selectivity over S1P3 [1] | inhibition of disease progression as measured by anti-dsDNA titers and kidney histology [2]
1 | COCCCCCC1CCc2cc([C@H]3CC[C@](N)(COP(=O)(O)O)C3)ccc2C1 (single isomer, unassigned) [Example 689] | possessed activity as an agonist of S1P1 and is selective over S1P3 | 
2 | COc1ccccc1CC[C@@H]1CCc2cc([C@H]3CC[C@](N)(CO)C3)ccc2C1 [Example 681, ((1R,3S)-1-amino-3-((S)-6-(2-methoxyphenethyl)-5,6,7,8-tetrahydronaphthalen-2-yl)cyclopentyl)methanol] |  | showed inhibition of disease progression
